pIC50: −log10 of the molar value.
How the values were obtained:
[1] = molecular target: T1, human SLC6A19 and TMEM27 (Homo sapiens, UniProt Q695T7); test: Radiolabelled (3H) leucine uptake in CHO cells with doxycycline-inducible expression of human SLC6A19 and TMEM27 (Example B-1); assay type: cell-based; conditions: CHO cells with doxycycline-inducible expression of human SLC6A19 and TMEM27, read-out: SLC6A19_Radioligand Uptake Assay IC50
T1 construct: expressed in transfected cells
T1 sequence (Q695T7 1-634): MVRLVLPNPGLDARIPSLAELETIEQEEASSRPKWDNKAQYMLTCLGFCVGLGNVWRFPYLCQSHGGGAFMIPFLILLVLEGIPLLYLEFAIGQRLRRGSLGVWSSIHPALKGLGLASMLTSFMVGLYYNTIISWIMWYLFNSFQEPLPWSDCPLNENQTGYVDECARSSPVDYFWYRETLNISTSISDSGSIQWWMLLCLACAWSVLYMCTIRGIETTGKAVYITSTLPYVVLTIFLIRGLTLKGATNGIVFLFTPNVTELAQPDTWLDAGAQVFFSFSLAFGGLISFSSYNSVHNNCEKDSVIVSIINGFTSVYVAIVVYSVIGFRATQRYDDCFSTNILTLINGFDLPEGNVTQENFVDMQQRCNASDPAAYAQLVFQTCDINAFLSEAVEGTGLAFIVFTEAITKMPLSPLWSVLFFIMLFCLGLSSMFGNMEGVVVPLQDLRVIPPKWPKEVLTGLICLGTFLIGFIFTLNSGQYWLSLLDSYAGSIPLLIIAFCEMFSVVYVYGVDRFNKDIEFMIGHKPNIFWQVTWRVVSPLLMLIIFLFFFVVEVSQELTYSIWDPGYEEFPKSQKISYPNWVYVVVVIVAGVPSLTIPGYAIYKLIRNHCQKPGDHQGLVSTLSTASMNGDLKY
T1 sequence (Q9HBJ8 15-222 partner): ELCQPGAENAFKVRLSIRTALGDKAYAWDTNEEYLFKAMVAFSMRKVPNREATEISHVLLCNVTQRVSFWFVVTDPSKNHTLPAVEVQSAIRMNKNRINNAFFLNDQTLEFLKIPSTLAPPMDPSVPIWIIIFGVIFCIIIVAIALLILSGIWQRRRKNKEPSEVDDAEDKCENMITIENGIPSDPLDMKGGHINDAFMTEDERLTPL
In short: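 CHO cells were induced with doxycycline for 18 h at 37 °C, washed in HBSS, then exposed to compounds for 1 h: 8-point, 3-fold dilutions in duplicate, 0.5% DMSO final. Uptake measured by scintillation counting after 2 h shaking. Activity normalized with positive control as 0% and DMSO as 100%.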

[2] = molecular target: T1, human SLC6A19 and TMEM27; test: 13C6,15N-isoleucine uptake in CHO cells with doxycycline-inducible expression of human SLC6A19 and TMEM27, RapidFire mass spectrometry (Example B-2); assay type: cell-based; conditions: read-out: SLC6A19_RapidFire Uptake Assay IC50
In short: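 CHO cells induced overnight with doxycycline to express human SLC6A19 plus TMEM27; 20 min preincubation with compound (10-point 2-fold series, duplicate) at 37 °C in HEPES buffer pH 7.2, then 20 min with 13C6,15N-isoleucine. Intracellular label quantified by RapidFire MS against 13C-leucine standard; positive control defined 100% inhibition.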

SMILES | pIC50 [1] | pIC50 [2]
O=C(NCc1cc2cc(Cl)c(OCc3ccon3)cc2[nH]1)C1CC1 [Compound 131, N-((5-chloro-6-(isoxazol-3-ylmethoxy)-1H-indol-2-yl)methyl)cyclopropanecarboxamide] | 7.13 | 7.30
CC(C)C(=O)NCc1cc2cc(F)c(OCc3cscn3)cc2[nH]1 [Compound 135, N-((5-fluoro-6-(thiazol-4-ylmethoxy)-1H-indol-2-yl)methyl)isobutyramide] | 7.09 | 7.31
O=C(NCc1cc2cc(F)c(OCc3cscn3)cc2[nH]1)C1CC1 [Compound 136, N-((5-fluoro-6-(thiazol-4-ylmethoxy)-1H-indol-2-yl)methyl)cyclopropanecarboxamide] | 7.08 | 7.42
CCC(=O)NCc1cc2cc(Cl)c(OCc3cscn3)cc2[nH]1 [Compound 146, N-((5-chloro-6-(thiazol-4-ylmethoxy)-1H-indol-2-yl)methyl)propionamide] | 7.22 | 7.44
CC1(C(=O)NCc2cc3cc(Cl)c(CCc4cscn4)cc3[nH]2)CC1 [Compound 149, N-((5-chloro-6-(2-(thiazol-4-yl)ethyl)-1H-indol-2-yl)methyl)-1-methylcyclopropane-1-carboxamide] | 7.07 | 7.47
CC1(C(=O)NCc2cc3ccc(NCc4ccon4)cc3[nH]2)CC1 [Compound 152, N-((6-((isoxazol-3-ylmethyl)amino)-1H-indol-2-yl)methyl)-1-methylcyclopropane-1-carboxamide] | 6.27 | 5.69
CC1(C(=O)NCc2cc3cc(Cl)c(OCc4cncs4)cc3[nH]2)CC1 [Compound 177, N-((5-chloro-6-(thiazol-5-ylmethoxy)-1H-indol-2-yl)methyl)-1-methylcyclopropane-1-carboxamide] | 6.51 | 6.56
CC1(C(=O)NCc2cc3ccc(OCc4c[nH]nn4)cc3[nH]2)CC1 [Compound 194, N-((6-((1H-1,2,3-triazol-4-yl)methoxy)-1H-indol-2-yl)methyl)-1-methylcyclopropane-1-carboxamide] | 5.17 | 5.31
CC(=O)NCc1cc2cc(F)c(OCc3cc(C)on3)cc2[nH]1 [Compound 205, N-((5-fluoro-6-((5-methylisoxazol-3-yl)methoxy)-1H-indol-2-yl)methyl)acetamide] | 6.10 | 6.15
CNC(=O)NCc1cc2cc(Cl)c(OCc3cscn3)cc2[nH]1 [Compound 209, 1-((5-chloro-6-(thiazol-4-ylmethoxy)-1H-indol-2-yl)methyl)-3-methylurea] | 6.89 | 6.93
CNC(=O)NCc1cc2cc(Cl)c(OCc3cc(C)no3)cc2[nH]1 [Compound 211, 1-((5-chloro-6-((3-methylisoxazol-5-yl)methoxy)-1H-indol-2-yl)methyl)-3-methylurea] | 7.06 | 7.42
CNC(=O)NCc1cc2cc(F)c(OCc3cscn3)cc2[nH]1 [Compound 214, 1-((5-fluoro-6-(thiazol-4-ylmethoxy)-1H-indol-2-yl)methyl)-3-methylurea] | 6.82 | 6.71
CNC(=O)NCc1cc2cc(F)c(OCc3ccon3)cc2[nH]1 [Compound 216, 1-((5-fluoro-6-(isoxazol-3-ylmethoxy)-1H-indol-2-yl)methyl)-3-methylurea] | 5.85 | 5.43
CC(=O)NCc1cc2cc(Cl)c(OCc3ccno3)cc2[nH]1 [Compound 219, N-((5-chloro-6-(isoxazol-5-ylmethoxy)-1H-indol-2-yl)methyl)acetamide] | 6.87 | 6.99

Continued by rising pIC50 [1], values first:

pIC50 [1] | pIC50 [2] | SMILES
5.77 | 5.91 | CC1(C(=O)NCc2cc3ccc(OCCc4cscn4)cc3[nH]2)CC1 [Compound 191, 1-methyl-N-((6-(2-(thiazol-4-yl)ethoxy)-1H-indol-2-yl)methyl)cyclopropane-1-carboxamide]
6.01 | 5.41 | CNC(=O)NCc1cc2cc(F)c(OCc3cocn3)cc2[nH]1 [Compound 215, 1-((5-fluoro-6-(oxazol-4-ylmethoxy)-1H-indol-2-yl)methyl)-3-methylurea]
6.68 | 6.34 | CC1(C(=O)NCc2cc3ccc(SCc4ccon4)cc3[nH]2)CC1 [Compound 196, N-((6-((isoxazol-3-ylmethyl)thio)-1H-indol-2-yl)methyl)-1-methylcyclopropanecarboxamide]
6.73 | 7.08 | O=C(NCc1cc2cc(Cl)c(OCc3ccon3)cc2[nH]1)C1(C(F)(F)F)CC1 [Compound 134, N-((5-chloro-6-(isoxazol-3-ylmethoxy)-1H-indol-2-yl)methyl)-1-(trifluoromethyl)cyclopropane-1-carboxamide]
6.73 | 6.53 | CC1(C(=O)NCc2cc3ccc(OCCc4ccon4)cc3[nH]2)CC1 [Compound 190, N-((6-(2-(isoxazol-3-yl)ethoxy)-1H-indol-2-yl)methyl)-1-methylcyclopropane-1-carboxamide]
6.74 | 6.76 | CC1(C(=O)NCc2cc3cc(Cl)c(NCc4ccon4)cc3[nH]2)CC1 [Compound 151, N-((5-chloro-6-((isoxazol-3-ylmethyl)amino)-1H-indol-2-yl)methyl)-1-methylcyclopropane-1-carboxamide]
6.80 | 7.39 | Cn1ncc(COc2cc3[nH]c(CNC(=O)C4(C)CC4)cc3cc2Cl)n1 [Compound 172, N-((5-chloro-6-((2-methyl-2H-1,2,3-triazol-4-yl)methoxy)-1H-indol-2-yl)methyl)-1-methylcyclopropane-1-carboxamide]
6.81 | 7.51 | Cc1cc(CCc2cc3[nH]c(CNC(=O)C4(C)CC4)cc3cc2Cl)no1 [Compound 148]
6.84 | 7.23 | CC1(C(=O)NCc2cc3cc(Cl)c(OCc4cscn4)cc3[nH]2)CC1 [Compound 184, N-((5-chloro-6-(thiazol-4-ylmethoxy)-1H-indol-2-yl)methyl)-1-methylcyclopropane-1-carboxamide]
6.87 | 6.99 | CC(C)C(=O)NCc1cc2cc(Cl)c(OCc3ccon3)cc2[nH]1 [Compound 132, N-((5-chloro-6-(isoxazol-3-ylmethoxy)-1H-indol-2-yl)methyl)isobutyramide]
6.92 | 7.44 | CC1(C(=O)NCc2cc3cc(Cl)c(CCc4ccon4)cc3[nH]2)CC1 [Compound 150, N-((5-chloro-6-(2-(isoxazol-3-yl)ethyl)-1H-indol-2-yl)methyl)-1-methylcyclopropane-1-carboxamide]
7.07 | 7.19 | Cc1cc(COc2cc3[nH]c(CNC(=O)C(C)C)cc3cc2Cl)no1 [Compound 130, N-((5-chloro-6-((5-methylisoxazol-3-yl)methoxy)-1H-indol-2-yl)methyl)isobutyramide]
7.09 | 7.35 | Cc1cc(COc2cc3[nH]c(CNC(=O)C4CC4)cc3cc2Cl)no1 [Compound 133, N-((5-chloro-6-((5-methylisoxazol-3-yl)methoxy)-1H-indol-2-yl)methyl)cyclopropanecarboxamide]
7.10 | 7.36 | CCC(=O)NCc1cc2cc(Cl)c(OCc3ccon3)cc2[nH]1 [Compound 129, N-((5-chloro-6-(isoxazol-3-ylmethoxy)-1H-indol-2-yl)methyl)propionamide]
7.14 | 7.37 | CC(C)C(=O)NCc1cc2cc(Cl)c(OCc3cscn3)cc2[nH]1 [Compound 145, N-((5-chloro-6-(thiazol-4-ylmethoxy)-1H-indol-2-yl)methyl)isobutyramide]
7.16 | 7.56 | CC(=O)NCc1cc2cc(Cl)c(OCc3cc(C)no3)cc2[nH]1 [Compound 218, N-((5-chloro-6-((3-methylisoxazol-5-yl)methoxy)-1H-indol-2-yl)methyl)acetamide]
7.17 | 7.48 | O=C(NCc1cc2cc(Cl)c(OCc3cscn3)cc2[nH]1)C1CC1 [Compound 147, N-((5-chloro-6-(thiazol-4-ylmethoxy)-1H-indol-2-yl)methyl)cyclopropanecarboxamide]
